Assay results reported in article PMC3848335, “Structure–Activity Relationships and Molecular Modeling of Sphingosine Kinase Inhibitors” (Journal of Medicinal Chemistry, 2013).
Entries after “also recorded” stand apart in the source; their conditions may differ.

Key:
[1] = biological target: T1, SK1 (Homo sapiens, UniProt Q9NYA1); experiment: SK1 activity assay (inhibition; [γ-32P]ATP, recombinant SK1 in HEK 293 cell lysates); assay type: biochemical; set-up: made in house; host or cells: HEK 293 cells (lysate, not purified); conditions: for SK1 inhibition (in words): 3 μM Sph, 250 μM ATP (Figure 3); for isoform selectivity SK1 vs SK2 (in words): comparison of inhibition of SK1 (3 μM Sph) and SK2 (10 μM Sph)
[2] = biological target: T2, SK2 (Homo sapiens, UniProt Q9NRA0); experiment: Evaluation of compounds as putative substrates of SK2 (absence of Sph); conditions: 50 μM compound, 250 μM ATP, absence of Sph (Fig. S1)
T2 sequence (Q9NRA0 1-654): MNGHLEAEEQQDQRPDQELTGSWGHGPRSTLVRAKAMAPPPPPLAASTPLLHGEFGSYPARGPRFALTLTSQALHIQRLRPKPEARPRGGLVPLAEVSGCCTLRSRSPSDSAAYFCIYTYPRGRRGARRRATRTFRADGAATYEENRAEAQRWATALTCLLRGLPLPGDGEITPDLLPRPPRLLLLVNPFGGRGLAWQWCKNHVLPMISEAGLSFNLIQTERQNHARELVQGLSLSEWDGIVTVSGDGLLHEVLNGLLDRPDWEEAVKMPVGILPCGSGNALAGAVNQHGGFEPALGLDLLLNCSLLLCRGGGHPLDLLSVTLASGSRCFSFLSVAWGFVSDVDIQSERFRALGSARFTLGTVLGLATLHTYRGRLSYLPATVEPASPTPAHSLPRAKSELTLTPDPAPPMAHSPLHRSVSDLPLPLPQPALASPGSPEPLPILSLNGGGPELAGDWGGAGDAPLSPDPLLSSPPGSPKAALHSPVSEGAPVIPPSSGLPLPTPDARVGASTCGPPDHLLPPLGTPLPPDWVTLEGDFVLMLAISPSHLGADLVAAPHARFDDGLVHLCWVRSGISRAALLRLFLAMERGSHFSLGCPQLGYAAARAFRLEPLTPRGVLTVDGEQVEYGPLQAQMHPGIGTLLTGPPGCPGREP

[3] = biological target: T1, SK1; experiment: Evaluation of compounds as putative substrates of SK1 (absence of Sph); conditions: 50 μM compound, 250 μM ATP
[4] = biological target: T2, SK2; experiment: SK2 activity assay (inhibition; [γ-32P]ATP, purified SK2); assay type: biochemical; conditions: 50 μM compound, 10 μM Sph, 250 μM ATP (Figure 3)
Method: To examine SAR among a panel of related compounds, we prepared a series of analogues bearing a 4-hydroxypiperidinyl group but varied the linker length between the aryl group and the piperidine. We also assessed the role of the alkyl substituent in the aryl group.
Figure 3 Effect of inhibitors on SK1 or SK2 activity. SK1 activity was measured using 3 μM Sph and 250 μM ATP. SK2 activity was assayed using 10 μM Sph and 250 μM ATP (n = 3 for each compound; results are expressed as % of control ± SD). […]. The control is 100% and equals activity against Sph alone.
Sphingosine kinase activity assays.
For SK2 activity assays, sphingosine (Sph) was complexed with fatty acid free bovine serum albumin (final concentration, 0.2 mg/mL) in reaction buffer 1 containing 20 mM Tris (pH 7.4), 1 mM EDTA, 1 mM Na3VO4, 40 mM β−glycerophosphate, 1 mM NaF, 0.007% (v/v) β6mercaptoethanol, 20% (v/v) glycerol, 10 µg/mL aprotinin, 10 µg/mL soybean trypsin inhibitor, 1 mM PMSF, 0.5 mM 46 deoxypyridoxine, and 400 mM KCl. Inhibition of SK2 activity was determined by incubating 37 ng of purified SK2 for 30 min at 30 °C in the presence of 10 µM Sph, 250 µM of [γ632P]ATP (specific activity, 4.4×10^4 cpm/nmol) in 10 mM MgCl2, and varying concentrations of the inhibitors dissolved in DMSO or control (5% v/v DMSO). […]
Compounds bearing hydroxyl groups were assessed for their ability to act as substrates for SK1 and […]

T1 sequence (Q9NYA1 whole entry, canonical isoform): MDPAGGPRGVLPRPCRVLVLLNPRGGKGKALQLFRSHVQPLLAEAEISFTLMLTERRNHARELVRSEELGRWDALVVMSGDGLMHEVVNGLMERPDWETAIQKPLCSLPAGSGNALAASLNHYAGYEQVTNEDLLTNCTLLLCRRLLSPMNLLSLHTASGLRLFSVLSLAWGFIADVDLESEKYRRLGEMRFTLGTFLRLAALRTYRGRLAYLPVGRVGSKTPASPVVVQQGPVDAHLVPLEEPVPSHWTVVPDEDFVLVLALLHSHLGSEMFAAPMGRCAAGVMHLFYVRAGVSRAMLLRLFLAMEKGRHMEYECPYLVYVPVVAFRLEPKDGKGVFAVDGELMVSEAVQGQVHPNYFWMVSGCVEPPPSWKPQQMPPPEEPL

| Molecule | SK1 inhibition (in words) ([1]; 50 μM compound) | further results |
| --- | --- | --- |
| CCCCCCCCc1ccc(CCN2CCC(F)CC2)cc1 [RB-034, 4-Fluoro-1-(4-octylphenethyl)piperidine] | eliminated inhibitory activity against SK1 | – |
| CCCCCCCCc1ccc(CCN2CC[C@H](O)C2)cc1 [RB-037, (S)-1-(4-Octylphenethyl)pyrrolidin-3-ol] | retained inhibitory activity against SK1 | substrate for SK2 (in words) [2]: weak substrates for SK2 |
| CCCCCCCCCCCCc1ccc(CCN2CCC(O)CC2)cc1 [RB-028, 1-(4-Dodecylphenethyl)piperidin-4-ol] | – | substrate for SK1 (in words) [3]: not substrates for SK1 |
| CCCCCCCCc1ccc(CN2CCC(O)CC2)cc1 [RB-023, 1-(4-Octylbenzyl)piperidin-4-ol] | did not significantly alter | – |
| CCCCCCCCc1ccc(C(=O)NCc2ccncc2)cc1 [RB-048, 4-Octyl-N-(pyridin-4-ylmethyl)benzamide] | effectively abolished | – |
| CCCCCCCCc1ccc(CCN2CCC(N)CC2)cc1 [RB-032, 1-(4-Octylphenethyl)piperidin-4-amine] | diminished the potency of SK1 inhibition | isoform selectivity SK1 vs SK2 (in words) [1]: isoform selectivity of SK1 over SK2 was retained |
| CCCCCCCCc1cn(-c2ccc(CCN3CCC(O)CC3)cc2)nn1 [RB-065] | – | isoform selectivity SK1 vs SK2 (in words) [1]: highly selective SK1 inhibitor |
| CCCCCc1cn(-c2ccc(CC[N+]3(C)CCCCC3)cc2)nn1.CS(=O)(=O)[O-] [RB-061, 1-Methyl-1-(4-(4-pentyl-1H-1,2,3-triazol-1-yl)phenethyl)piperidinium Methanesulfonate] | ineffective as SK inhibitors | – |
| 4-(4-Octylphenethyl)pyridine [RB-051] | effectively abolished | – |
| CCCCCCCCc1ccc(CCCCN2CCC(O)CC2)cc1 [RB-025, 1-(4-(4-Octylphenyl)butyl)piperidin-4-ol] | did not significantly alter | substrate for SK1 (in words) [3]: not substrates for SK1 |
| CCCCCCCCc1ccc(C[n+]2ccc(N3CCC(C)CC3)cc2)cc1.[Br-] [RB-053, 4-(4-Methylpiperidin-1-yl)-1-(4-octylbenzyl)pyridinium Bromide] | ineffective as SK inhibitors | isoform selectivity SK1 vs SK2 (in words) [1]: moderate selectivity for SK2 |
| CCCCCCCCCCCCc1ccc(CCN2CCC(N)CC2)cc1 [RB-033, 1-(4-Dodecylphenethyl)piperidin-4-amine] | eliminated the inhibitory activity toward SK1 | – |
| CCCCCCCCCCCCc1ccc(CCN2CCC[C@@H]2CO)cc1 [RB-042, (R)-(1-(4-Dodecylphenethyl)pyrrolidin-2-yl)methanol] | – | isoform selectivity SK1 vs SK2 (in words) [1]: equipotent inhibitors of SK1 and SK2 |
| Cc1ccc(CCN2CCC(O)CC2)cc1 [RB-026, 1-(4-Methylphenethyl)piperidin-4-ol] | almost complete lack of inhibition | decrease of SK1 inhibition compared with RB-023 ([1]; 50 μM compound): more than 6 fold |
| CCCCCCCCc1ccc(CCN2CCC[C@@H]2CO)cc1 [RB-040, (R)-(1-(4-Octylphenethyl)pyrrolidin-2-yl)methanol] | – | isoform selectivity SK1 vs SK2 (in words) [1]: equipotent inhibitors of SK1 and SK2 |
| CCCCCCCCc1ccc(CCN2CC[C@@H](O)C2)cc1 [RB-038, (R)-1-(4-Octylphenethyl)pyrrolidin-3-ol] | retained inhibitory activity against SK1 | – |
| CCCCCCCCCCCCc1ccc(CCN2CCC[C@H]2CO)cc1 [RB-043, (S)-(1-(4-Dodecylphenethyl)pyrrolidin-2-yl)methanol] | much less active; also recorded: abolished | substrate for SK2 (in words) [2]: weak substrates for SK2 |
| CCCCc1cn(-c2ccc(CC[N+]3(C)CCCCC3)cc2)nn1.CS(=O)(=O)[O-] [RB-060, 1-(4-(4-Butyl-1H-1,2,3-triazol-1-yl)phenethyl)-1-methylpiperidinium Methanesulfonate] | ineffective as SK inhibitors | – |
| Cc1ccc(CCN2CCC(N=[N+]=[N-])CC2)cc1 [RB-029, 4-Azido-1-(4-methylphenethyl)piperidine] | reduced SK1 inhibition markedly | – |
| CCCCCCCCc1ccc(CCN2CCC(N=[N+]=[N-])CC2)cc1 [RB-030, 4-Azido-1-(4-octylphenethyl)piperidine] | reduced SK1 inhibition markedly | – |
| Cc1ccc(CCN2CCC[C@@H]2CO)cc1 [RB-039, (R)-(1-(4-Methylphenethyl)pyrrolidin-2-yl)methanol] | abolished | – |
| CCCCCCCCc1ccc(CCN2CCC(OC)CC2)cc1 [RB-036, 4-Methoxy-1-(4-octylphenethyl)piperidine] | eliminated inhibitory activity against SK1 | – |
| CCCCCCCCc1ccc(CCN2CCC(=O)CC2)cc1 [RB-035, 1-(4-Octylphenethyl)piperidin-4-one] | maintained inhibition of SK1 | SK2 inhibition (in words) [4]: increased inhibition of SK2; isoform selectivity SK1 vs SK2 (in words) [1]: eliminated the isoform selectivity |
| 1-Methyl-4-(4-octylphenethyl)pyridinium Iodide [RB-052] | ineffective as SK inhibitors | – |
| Cc1ccc(CCN2CCC(N)CC2)cc1 [RB-031, 1-(4-Methylphenethyl)piperidin-4-amine] | eliminated the inhibitory activity toward SK1 | – |
| CCCCCCCCc1cn(-c2ccc(CC[N+]3(C)CCCCC3)cc2)nn1.CS(=O)(=O)[O-] [RB-062, 1-Methyl-1-(4-(4-octyl-1H-1,2,3-triazol-1-yl)phenethyl)piperidinium Methanesulfonate] | ineffective as SK inhibitors | – |
| CCCCCCCCc1ccc(CCN2CCC[C@H]2CO)cc1 [RB-041, (S)-(1-(4-Octylphenethyl)pyrrolidin-2-yl)methanol] | much less active | substrate for SK2 (in words) [2]: weak substrates for SK2 |
| CCCCCCCCc1ccc(CCCN2CCC(O)CC2)cc1 [RB-024, 1-(3-(4-Octylphenyl)propyl)piperidin-4-ol] | did not significantly alter | – |
